Laboratory results reported in patent US20250145665A1, “MACROCYCLIC PEPTIDES USEFUL AS MODULATORS OF TNF ALPHA” (Bristol-Myers Squibb Company, priority 2023, published 2025).
Starred links: 1 amine or outer side, 2 acyl side, 3 side chain; linkers in the order of their positions; H or OH if unused. Positions of bridges follow the written chain, without caps; N, C: chain ends. Non-standard residues stand in square brackets, D forms with d. Residues, ends and D or L forms follow the SMILES beside them. Bip(4'-NHAc) = CC(=O)Nc1ccc(-c2ccc(C[C@H](N)C(=O)O)cc2)cc1; Ala(morpholin-4-yl) = N[C@@H](CN1CCOCC1)C(=O)O; Phe(3-CONH2) = NC(=O)c1cccc(C[C@H](N)C(=O)O)c1; X59 = O=C([C@H](Cc1c(F)cc(F)cc1F)N[*:1])[*:2]; Phe(4-CH2NH2) = NCc1ccc(C[C@H](N)C(=O)O)cc1; Bip = N[C@@H](Cc1ccc(-c2ccccc2)cc1)C(=O)O; Phe(4-F) = N[C@@H](Cc1ccc(F)cc1)C(=O)O; Val(3-OH) = CC(C)(O)[C@H](N)C(=O)O; h4Pal = N[C@@H](CCc1ccncc1)C(=O)O; 2Pal = N[C@@H](Cc1ccccn1)C(=O)O; 3Pal = N[C@@H](Cc1cccnc1)C(=O)O; 4Pal = N[C@@H](Cc1ccncc1)C(=O)O; hLeu = CC(C)CC[C@H](N)C(=O)O; Hpra = C#CCC[C@H](N)C(=O)O; Sar = CNCC(=O)O

The compounds below were run against TNFα (Homo sapiens, UniProt P01375) (assay: TNF-Induced HEK-Blue Assay). Settings: HEK-Blue-CD40L cells, NF-kB-driven secreted alkaline phosphatase reporter; TNFα 0.5 ng/ml; 18 h; read-out: TNF induced HEK-Blue assay IC50 value.
Sequence of TNFα (P01375 77-233 limits assumed): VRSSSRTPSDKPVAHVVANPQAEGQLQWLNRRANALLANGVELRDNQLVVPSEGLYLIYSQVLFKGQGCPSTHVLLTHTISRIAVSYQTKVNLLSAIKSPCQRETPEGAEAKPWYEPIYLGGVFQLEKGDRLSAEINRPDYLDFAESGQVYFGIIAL
Format: cell-based
An IC50 of 0.2 to 2 µM was found for CC(C)C[C@@H]1NC(=O)[C@H](CCCNC(=N)N)NC(=O)[C@H](CC(C)C)NC(=O)[C@@H]2CCCN2C(=O)[C@H](C(C)C)NC(=O)[C@H](CCCNC(=N)N)NC(=O)[C@H](CC(=O)O)NC(=O)[C@@H]2CCCN2C(=O)CN(C)C(=O)[C@H](Cc2ccc(-c3ccccc3)cc2)NC(=O)[C@H](Cc2ccc(-c3ccccc3)cc2)NC(=O)[C@H](Cc2ccccc2)NC(=O)CSC[C@@H](C(=O)NCC(N)=O)NC1=O [Example 21] ({CH2CO}-F[Bip][Bip][Sar]PDRVPLRLCG-NH2; thioether N-13) in this work.
An IC50 of 0.2 to 2 µM was found for CC(C)C[C@@H]1NC(=O)[C@H](CCCNC(=N)N)NC(=O)[C@H](C(C)C)NC(=O)[C@@H]2CCCN2C(=O)[C@H](Cc2ccc(CN)cc2)NC(=O)[C@H](CCCNC(=N)N)NC(=O)[C@H](CC(=O)O)NC(=O)[C@@H]2CCCN2C(=O)CN(C)C(=O)[C@H](Cc2ccc(-c3ccccc3)cc2)NC(=O)[C@H](Cc2ccc(-c3ccccc3)cc2)NC(=O)[C@H](Cc2ccccc2)NC(=O)CSC[C@@H](C(=O)NCC(N)=O)NC1=O [Example 22] ({CH2CO}-F[Bip][Bip][Sar]PDR[Phe(4-CH2NH2)]PVRLCG-NH2; thioether N-13) in this work.
An IC50 of 0.2 to 2 µM was found for CC(C)C[C@@H]1NC(=O)[C@H](CCCNC(=N)N)NC(=O)[C@H](C(C)C)NC(=O)[C@@H]2CCCN2C(=O)[C@H](Cc2ccc(F)cc2)NC(=O)[C@H](CCCNC(=N)N)NC(=O)[C@H](CC(=O)O)NC(=O)[C@@H]2CCCN2C(=O)CN(C)C(=O)[C@H](Cc2ccc(-c3ccccc3)cc2)NC(=O)[C@H](Cc2ccc(-c3ccccc3)cc2)NC(=O)[C@H](Cc2ccccc2)NC(=O)CSC[C@@H](C(=O)NCC(N)=O)NC1=O [Example 23] ({CH2CO}-F[Bip][Bip][Sar]PDR[Phe(4-F)]PVRLCG-NH2; thioether N-13) in this work.
An IC50 of 0.2 to 2 µM was found for CC(C)C[C@@H]1NC(=O)[C@H](CCCNC(=N)N)NC(=O)[C@H](C(C)C)NC(=O)[C@@H]2CCCN2C(=O)[C@H](CCc2ccncc2)NC(=O)[C@H](CCCNC(=N)N)NC(=O)[C@H](CC(=O)O)NC(=O)[C@@H]2CCCN2C(=O)CN(C)C(=O)[C@H](Cc2ccc(-c3ccccc3)cc2)NC(=O)[C@H](Cc2ccc(-c3ccccc3)cc2)NC(=O)[C@H](Cc2ccccc2)NC(=O)CSC[C@@H](C(=O)NCC(N)=O)NC1=O [Example 24] ({CH2CO}-F[Bip][Bip][Sar]PDR[h4Pal]PVRLCG-NH2; thioether N-13) in this work.
An IC50 of 0.2 to 2 µM was found for CC(C)C[C@@H]1NC(=O)[C@H](CCCNC(=N)N)NC(=O)[C@H](C(C)C)NC(=O)[C@@H]2CCCN2C(=O)[C@H](Cc2ccncc2)NC(=O)[C@H](CCCNC(=N)N)NC(=O)[C@H](CC(=O)O)NC(=O)[C@@H]2CCCN2C(=O)CN(C)C(=O)[C@H](Cc2ccc(-c3ccccc3)cc2)NC(=O)[C@H](Cc2ccc(-c3ccccc3)cc2)NC(=O)[C@H](Cc2ccccc2)NC(=O)CSC[C@@H](C(=O)NCC(N)=O)NC1=O [Example 25] ({CH2CO}-F[Bip][Bip][Sar]PDR[4Pal]PVRLCG-NH2; thioether N-13) in this work.
An IC50 of 0.2 to 2 µM was found for CC(C)C[C@@H]1NC(=O)[C@H](CCCNC(=N)N)NC(=O)[C@H](C(C)C)NC(=O)[C@@H]2CCCN2C(=O)[C@H](Cc2cccnc2)NC(=O)[C@H](CCCNC(=N)N)NC(=O)[C@H](CC(=O)O)NC(=O)[C@@H]2CCCN2C(=O)CN(C)C(=O)[C@H](Cc2ccc(-c3ccccc3)cc2)NC(=O)[C@H](Cc2ccc(-c3ccccc3)cc2)NC(=O)[C@H](Cc2ccccc2)NC(=O)CSC[C@@H](C(=O)NCC(N)=O)NC1=O [Example 26] ({CH2CO}-F[Bip][Bip][Sar]PDR[3Pal]PVRLCG-NH2; thioether N-13) in this work.
An IC50 of 0.05 to 0.2 µM was found for CC(C)C[C@@H]1NC(=O)[C@H](CCCNC(=N)N)NC(=O)[C@H](C(C)C)NC(=O)[C@@H]2CCCN2C(=O)[C@H](C(C)C)NC(=O)[C@H](CCCNC(=N)N)NC(=O)[C@H](CC(=O)O)NC(=O)[C@@H]2CCCN2C(=O)CN(C)C(=O)[C@H](Cc2ccc(-c3ccccc3)cc2)NC(=O)[C@H](Cc2ccc(-c3ccccc3)cc2)NC(=O)[C@H](C(C)(C)O)NC(=O)CSC[C@@H](C(=O)NCC(N)=O)NC1=O [Example 27] ({CH2CO}-[Val(3-OH)][Bip][Bip][Sar]PDRVPVRLCG-NH2; thioether N-13) in this work.
An IC50 of 0.2 to 2 µM was found for CC(C)CC[C@@H]1NC(=O)CSC[C@@H](C(=O)NCC(N)=O)NC(=O)[C@H](CC(C)C)NC(=O)[C@H](CCCNC(=N)N)NC(=O)[C@H](C(C)C)NC(=O)[C@@H]2CCCN2C(=O)[C@H](C(C)C)NC(=O)[C@H](CCCNC(=N)N)NC(=O)[C@H](CC(=O)O)NC(=O)[C@@H]2CCCN2C(=O)CN(C)C(=O)[C@H](Cc2ccc(-c3ccccc3)cc2)NC(=O)[C@H](Cc2ccc(-c3ccccc3)cc2)NC1=O [Example 28] ({CH2CO}-[hLeu][Bip][Bip][Sar]PDRVPVRLCG-NH2; thioether N-13) in this work.
An IC50 of 0.2 to 2 µM was found for CC(C)C[C@@H]1NC(=O)[C@H](CCCNC(=N)N)NC(=O)[C@H](C(C)C)NC(=O)[C@@H]2CCCN2C(=O)[C@H](C(C)C)NC(=O)[C@H](CCCNC(=N)N)NC(=O)[C@H](CC(=O)O)NC(=O)[C@@H]2CCCN2C(=O)CN(C)C(=O)[C@H](Cc2ccc(-c3ccccc3)cc2)NC(=O)[C@H](Cc2ccc(-c3ccccc3)cc2)NC(=O)[C@H](Cc2cccnc2)NC(=O)CSC[C@@H](C(=O)NCC(N)=O)NC1=O [Example 29] ({CH2CO}-[3Pal][Bip][Bip][Sar]PDRVPVRLCG-NH2; thioether N-13) in this work.
An IC50 of 0.2 to 2 µM was found for CC(C)C[C@@H]1NC(=O)[C@H](CCCNC(=N)N)NC(=O)[C@H](C(C)C)NC(=O)[C@@H]2CCCN2C(=O)[C@H](C(C)C)NC(=O)[C@H](CCCNC(=N)N)NC(=O)[C@H](CC(=O)O)NC(=O)[C@@H]2CCCN2C(=O)CN(C)C(=O)[C@H](Cc2ccc(-c3ccccc3)cc2)NC(=O)[C@H](Cc2ccc(-c3ccccc3)cc2)NC(=O)[C@H](Cc2ccccn2)NC(=O)CSC[C@@H](C(=O)NCC(N)=O)NC1=O [Example 30] ({CH2CO}-[2Pal][Bip][Bip][Sar]PDRVPVRLCG-NH2; thioether N-13) in this work.
An IC50 of 0.2 to 2 µM was found for CC(C)C[C@@H]1NC(=O)[C@H](CCCNC(=N)N)NC(=O)[C@H](C(C)C)NC(=O)[C@@H]2CCCN2C(=O)[C@H](C(C)C)NC(=O)[C@H](CCCNC(=N)N)NC(=O)[C@H](CC(=O)O)NC(=O)[C@@H]2CCCN2C(=O)CN(C)C(=O)[C@H](Cc2ccc(-c3ccccc3)cc2)NC(=O)[C@H](Cc2ccc(-c3ccccc3)cc2)NC(=O)[C@H](Cc2c(F)cc(F)cc2F)NC(=O)CSC[C@@H](C(=O)NCC(N)=O)NC1=O [Example 31] ({CH2CO}-[X59][Bip][Bip][Sar]PDRVPVRLCG-NH2; thioether N-13) in this work.
An IC50 of 0.05 to 0.2 µM was found for CC(C)C[C@@H]1NC(=O)[C@H](CCCNC(=N)N)NC(=O)[C@H](C(C)C)NC(=O)[C@@H]2CCCN2C(=O)[C@H](C(C)C)NC(=O)[C@H](CCCNC(=N)N)NC(=O)[C@H](CC(=O)O)NC(=O)[C@@H]2CCCN2C(=O)CN(C)C(=O)[C@H](Cc2ccc(-c3ccccc3)cc2)NC(=O)[C@H](Cc2ccc(-c3ccccc3)cc2)NC(=O)[C@H](CN2CCOCC2)NC(=O)CSC[C@@H](C(=O)NCC(N)=O)NC1=O [Example 32] ({CH2CO}-[Ala(morpholin-4-yl)][Bip][Bip][Sar]PDRVPVRLCG-NH2; thioether N-13) in this work.
An IC50 of 0.2 to 2 µM was found for C#CCC[C@@H]1NC(=O)[C@H](CCCNC(=N)N)NC(=O)[C@H](CC(=O)O)NC(=O)[C@@H]2CCCN2C(=O)CN(C)C(=O)[C@H](Cc2ccc(-c3ccccc3)cc2)NC(=O)[C@H](Cc2ccc(-c3ccccc3)cc2)NC(=O)[C@H](Cc2ccccc2)NC(=O)CSC[C@@H](C(=O)NCC(N)=O)NC(=O)[C@H](CC(C)C)NC(=O)[C@H](CCCNC(=N)N)NC(=O)[C@H](C(C)C)NC(=O)[C@@H]2CCCN2C1=O [Example 33] ({CH2CO}-F[Bip][Bip][Sar]PDR[Hpra]PVRLCG-NH2; thioether N-13) in this work.
An IC50 of 0.2 to 2 µM was found for CC(C)C[C@@H]1NC(=O)[C@H](Cc2ccccn2)NC(=O)[C@H](C(C)C)NC(=O)[C@@H]2CCCN2C(=O)[C@H](C(C)C)NC(=O)[C@H](CCCNC(=N)N)NC(=O)[C@H](CC(=O)O)NC(=O)[C@@H]2CCCN2C(=O)CN(C)C(=O)[C@H](Cc2ccc(-c3ccccc3)cc2)NC(=O)[C@H](Cc2ccc(-c3ccccc3)cc2)NC(=O)[C@H](Cc2ccccc2)NC(=O)CSC[C@@H](C(=O)NCC(N)=O)NC1=O [Example 34] ({CH2CO}-F[Bip][Bip][Sar]PDRVPV[2Pal]LCG-NH2; thioether N-13) in this work.
An IC50 of 0.2 to 2 µM was found for CC(C)C[C@@H]1NC(=O)[C@H](CCCNC(=N)N)NC(=O)[C@H](C(C)C)NC(=O)[C@@H]2CCCN2C(=O)[C@H](C(C)C)NC(=O)[C@H](CCCNC(=N)N)NC(=O)[C@H](CC(=O)O)NC(=O)[C@@H]2CCCN2C(=O)CN(C)C(=O)[C@H](Cc2ccc(-c3ccccc3)cc2)NC(=O)[C@H](Cc2ccc(-c3ccccc3)cc2)NC(=O)[C@H](Cc2cccc(C(N)=O)c2)NC(=O)CSC[C@@H](C(=O)NCC(N)=O)NC1=O [Example 35] ({CH2CO}-[Phe(3-CONH2)][Bip][Bip][Sar]PDRVPVRLCG-NH2; thioether N-13) in this work.
An IC50 of 0.2 to 2 µM was found for CC(C)C[C@@H]1NC(=O)[C@H](Cc2ccc(CN)cc2)NC(=O)[C@H](C(C)C)NC(=O)[C@@H]2CCCN2C(=O)[C@H](C(C)C)NC(=O)[C@H](CCCNC(=N)N)NC(=O)[C@H](CC(=O)O)NC(=O)[C@@H]2CCCN2C(=O)CN(C)C(=O)[C@H](Cc2ccc(-c3ccccc3)cc2)NC(=O)[C@H](Cc2ccc(-c3ccccc3)cc2)NC(=O)[C@H](Cc2ccccc2)NC(=O)CSC[C@@H](C(=O)NCC(N)=O)NC1=O [Example 36] ({CH2CO}-F[Bip][Bip][Sar]PDRVPV[Phe(4-CH2NH2)]LCG-NH2; thioether N-13) in this work.
An IC50 of 0.2 to 2 µM was found for CC(=O)Nc1ccc(-c2ccc(C[C@@H]3NC(=O)[C@H](Cc4ccc(-c5ccccc5)cc4)NC(=O)[C@H](Cc4ccccc4)NC(=O)CSC[C@@H](C(=O)NCC(N)=O)NC(=O)[C@H](CC(C)C)NC(=O)[C@H](CCCNC(=N)N)NC(=O)[C@H](C(C)C)NC(=O)[C@@H]4CCCN4C(=O)[C@H](C(C)C)NC(=O)[C@H](CCCNC(=N)N)NC(=O)[C@H](CC(=O)O)NC(=O)[C@@H]4CCCN4C(=O)CN(C)C3=O)cc2)cc1 [Example 37] ({CH2CO}-F[Bip][Bip(4'-NHAc)][Sar]PDRVPVRLCG-NH2; thioether N-13) in this work.
